In patent US7943577B2, “Alpha-fetoprotein peptides and uses thereof” (Albany Medical College, priority 2001, dated 2011):
Entries after “also recorded” stand apart in the source; their conditions may differ. Square brackets hold non-standard residues; d marks the D form. Ends that are not written are not given here. Hyp = O=C(O)[C@@H]1C[C@@H](O)CN1

Assays:
immature mouse uterus = assay: Immature mouse uterine growth assay; type: in vivo; details: for inhibition of the uterotrophic effect of estradiol: Pep 1 μg i.p. one hour before E2 0.5 μg i.p.; for inhibition of the uterotrophic effect of estradiol / inhibition of the uterotrophic effect of tamoxifen: FIG. 13b; for inhibition of the uterotrophic effect of tamoxifen: Pep 1 μg i.p. one hour before Tam 1.0 μg i.p.; for uterotrophic effect of agent alone: peptide even at a dose of 10 μg/mouse, FIG. 13a; for biological activity of gel filtration fraction of aged peptide: 1 μg i.p.
Procedure: Immature Mouse Uterine Growth Assay.
Differences between groups were evaluated, employing the non-parametric Wilcoxon Sum of Ranks test (one-sided).

[1] = tested on: MCF-7 human breast cancer xenografts; assay: Human breast cancer xenograft assay, MCF-7; type: in vivo; details: for tumor volumes versus E2 alone group (Wilcoxon ranks-sum test): MCF-7, day 30 (FIG. 7: 20 days and 30 days) after tumor implantation, p<0.05; for growth (tumor volume) of MCF-7 xenografts in E2-supplemented SCID mice: peptide 1 μg i.p. twice a day, tamoxifen 50 μg i.p. once a day, 30-day observation
Procedure: Human Breast Cancer Xenograft Assay. A bioassay for anti-breast cancer activity was performed according to Bennett et al. (23;24). Confluent MCF-7 human breast cancer cells were trypsinized into suspension and pelleted by centrifugation at 200×g. The pellet was then solidified into a fibrin clot by exposing it to 10 μl of fibrinogen (50 mg/ml) and 10 μl of thrombin (50 units/ml). The solid mass of MCF-7 cells was then cut into pieces 1.5 mm in diameter. A tumor segment of ˜1.5 mm in diameter was implanted under the kidney capsule of an immunodeficient ICR-SCID male mouse (Taconic Farms) that weighed about 25 g. Estrogen supplementation was accomplished by s.c. implantation of a silastic tubing capsule containing solid E2 inserted on the day of tumor implantation. Peptide was injected i.p. every twelve hours at a dose of 1 μg per mouse. Tumor growth was monitored during survival laparotomy at 10 day intervals by measurement of the diameters of the short (d) and long axes (D) of each tumor, using a dissecting microscope equipped with an ocular micrometer. Tumor volumes were calculated using the formula (π/6) (d)^2D, assuming the tumor shape to be an ellipsoid of revolution around its long axis (D). There were five to seven replicate mice included in each treatment group. Mean tumor volume±standard error in each group was calculated for display of growth curves. Significance of differences between groups were tested using the one-sided Wilcoxon Sum of Ranks Test.

[2] = tested on: MCF-7/Tam human breast cancer xenografts; assay: Human breast cancer xenograft assay, tamoxifen-resistant MCF-7 subline; type: in vivo; details: for growth (tumor volume) of tamoxifen-resistant MCF-7 subline xenografts in E2-supplemented SCID mice: peptide 1 μg i.p. twice a day, tamoxifen 50 μg i.p. once a day, 30-day observation
Procedure: (§1) Cell Lines. T47D and MDA-231 human breast cancer cell lines were purchased from the American Type Culture Collection (Manassas, Va.). Growth medium for T47D cells consisted of RPMI 1640 (Life Technologies, Germantown, Md.) supplemented with 10% fetal bovine serum (Life Technologies) and 8 μg/ml bovine insulin (Sigma, St. Louis, Mo.). […] The MCF-7 cell line was obtained from Dr. Alberto C. Baldi, Institute of Experimental Biology and Medicine, Buenos Aires, Argentina, and was maintained as previously described by Gierthy et al. (1991). […] Human Breast Cancer Xenograft Assay. A bioassay for anti-breast cancer activity was performed according to Bennett et al. (23;24). […] The pellet was then solidified into a fibrin clot by exposing it to 10 μl of fibrinogen (50 mg/ml) and 10 μl of thrombin (50 units/ml). The solid mass of MCF-7 cells was then cut into pieces 1.5 mm in diameter. A tumor segment of ˜1.5 mm in diameter was implanted under the kidney capsule of an immunodeficient ICR-SCID male mouse (Taconic Farms) that weighed about 25 g. […] Peptide was injected i.p. every twelve hours at a dose of 1 μg per mouse. Tumor growth was monitored during survival laparotomy at 10 day intervals by measurement of the diameters of the short (d) and long axes (D) of each tumor, using a dissecting microscope equipped with an ocular micrometer. […] There were five to seven replicate mice included in each treatment group. Mean tumor volume±standard error in each group was calculated for display of growth curves. Significance of differences between groups were tested using the one-sided Wilcoxon Sum of Ranks Test.

[3] = tested on: T47D human breast cancer xenografts; assay: Human breast cancer xenograft assay, T47D; type: in vivo; details: for growth (tumor volume) of T47D xenografts in E2-supplemented SCID mice: peptide 1 μg i.p. twice a day, 30-day observation
Procedure: as §1

[4] = tested on: MDA-MB-231 human breast cancer xenografts; assay: Human breast cancer xenograft assay, MDA-MB-231; type: in vivo; details: for growth (tumor volume) of ER− MDA-MB-231 xenografts: peptide 1 μg i.p. twice a day, tamoxifen 50 μg i.p. once a day, 30-day observation
Procedure: as §1

[5] = biological target: T1, estrogen receptor (rabbit uterine cytosol) (Oryctolagus cuniculus, UniProt G1SML6); assay: Assessment of estrogen receptor antagonism ([3H]estradiol binding)
T1 sequence (G1SML6 1-598): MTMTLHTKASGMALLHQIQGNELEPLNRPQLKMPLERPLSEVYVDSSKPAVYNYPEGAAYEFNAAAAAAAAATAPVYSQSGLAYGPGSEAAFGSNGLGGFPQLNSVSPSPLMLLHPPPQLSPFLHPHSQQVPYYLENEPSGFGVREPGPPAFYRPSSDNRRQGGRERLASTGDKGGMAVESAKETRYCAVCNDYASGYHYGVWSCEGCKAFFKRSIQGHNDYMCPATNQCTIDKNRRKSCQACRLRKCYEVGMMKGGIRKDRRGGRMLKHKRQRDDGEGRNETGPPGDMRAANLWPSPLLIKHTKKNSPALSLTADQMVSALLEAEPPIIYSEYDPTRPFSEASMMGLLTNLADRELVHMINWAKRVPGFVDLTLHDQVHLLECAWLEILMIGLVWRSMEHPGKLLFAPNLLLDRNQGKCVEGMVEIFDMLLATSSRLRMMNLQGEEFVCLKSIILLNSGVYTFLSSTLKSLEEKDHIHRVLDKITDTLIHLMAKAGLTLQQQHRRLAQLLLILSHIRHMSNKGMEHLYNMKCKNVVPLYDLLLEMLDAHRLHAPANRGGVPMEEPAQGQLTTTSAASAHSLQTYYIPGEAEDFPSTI
Procedure: Assessment of Estrogen Receptor Antagonism. Commercially obtained rabbit uteri (Pel-Freez Biological, Rogers, A R) were used as a source of estrogen receptor. Uteri were pulverized in a stainless steel impact mortar under liquid nitrogen and homogenized (20% w/v) in assay buffer (10 mM Tris (pH 7.4), 1.5 mM EDTA, 10% glycerol, 10 mM monothioglycerol, and 10 mM sodium molybdate] on ice. Centrifugation (50,000×g) for 1 h yielded a supernatant containing cytosol, which was adjusted with assay buffer to 2.5 mg protein/ml. All incubations were carried out in triplicate, each containing 100 μl of cytosol, 20 μl of […] 6,7-[3H]estradiol (50 Ci/mmol; DuPont Pharmaceuticals Company, Wilmington, Del., U.S.A.), and 80 μl of putative antagonist in assay buffer. Total count tubes received 20 μl of [3H]estradiol and 180 μl of assay buffer. After incubation overnight at 4° C., all but the total count tubes received 300 μl of dextran-coated charcoal suspension; tubes were agitated for 15 min and then centrifuged (1,000×g) for 15 min. Supernatants were decanted into counting vials, scintillant was added, and protein-bound tritium was determined by liquid scintillation counting.

[6] = in vivo; cited from earlier work
[7] = tested on: MCF-7 breast cancer cells; details: ERα-positive breast cancer (MCF-7) cells; Background of Example IV; cited from earlier work
[8] = tested on: human breast cancer lines; details: DeFreest et al., J Pept Res 63:409-419, 2004; cited from earlier work

## EMTPVNPG (listed as Homo sapiens) [SEQ ID NO: 6]
Immature mouse uterus
  biological activity of stored inactive peptide after brief treatment with 4M urea: regenerated by 4M urea

## EMTOVNOG (EMT[Hyp]VN[Hyp]G; listed as Homo sapiens) [SEQ ID NO: 4]
Immature mouse uterus; listed as Pep
  inhibition of the uterotrophic effect of estradiol: significantly different
  inhibition of the uterotrophic effect of tamoxifen: significantly different
Immature mouse uterus; listed as peptide
  inhibition of the uterotrophic effect of estradiol: inhibited the uterotrophic effect of tamoxifen as well as that of estradiol
  inhibition of the uterotrophic effect of tamoxifen: inhibited the uterotrophic effect of tamoxifen
Immature mouse uterus
  inhibition of the uterotrophic effect of tamoxifen: significantly inhibited tamoxifen's uterotrophic effect
Immature mouse uterus; i.p.
  uterotrophic effect of agent alone: no uterotrophic effect whatsoever
[1]
  tumor volumes versus E2 alone group (Wilcoxon ranks-sum test): significantly different
  growth (tumor volume) of MCF-7 xenografts in E2-supplemented SCID mice: prevented growth; also recorded: no significant increase in tumor volume
[2]; MCF-7 subline made resistant to tamoxifen, day 30, p<0.05
  tumor volumes versus E2 alone group (Wilcoxon Ranks Sum Test): significantly different
[2]
  growth (tumor volume) of tamoxifen-resistant MCF-7 subline xenografts in E2-supplemented SCID mice: completely prevented the xenograft growth; also recorded: completely stopped the growth
[3]; T47D, day 30, p<0.05
  tumor volumes versus E2 alone group (Wilcoxon Ranks Sum Test): significantly different
[3]
  growth (tumor volume) of T47D xenografts in E2-supplemented SCID mice: completely prevented tumor growth
[4]; MDA-MB-231, FIG. 11
  differences in tumor volumes between groups: no differences in tumor volumes
[4]
  growth (tumor volume) of ER− MDA-MB-231 xenografts: Neither peptide nor tamoxifen were effective; also recorded: had no effect on the growth
[5]; cell-free system
  competition/interference with estrogen binding to the estrogen receptor: does not interfere with the binding of [^3H]estradiol to the estrogen receptor
[5]; peptide concentration range of 10^−10M to 10^−5M
  interference with E2 binding to ER: no interference with E2 binding to ER

## QMTPVNPG (listed as Homo sapiens) [SEQ ID NO: 2]
Immature mouse uterus
  biological activity of stored inactive peptide after brief treatment with 4M urea: restored its biological activity
Immature mouse uterus; Stored over 1 year (lyophilized, −20° C.), 1 μg per mouse i.p.
  % Inhibition of E2-Stimulated Growth of Immature Mouse Uterus ± SE: 0 ± 2%
Immature mouse uterus; higher molecular weight fraction (FIG. 2b, left side of peak)
  biological activity of gel filtration fraction of aged peptide: biologically inactive
Immature mouse uterus; i.p., FIG. 1a
  optimal dose for inhibition of estrogen-stimulated growth of mouse uterus: 1 μg/mouse
Immature mouse uterus; lower molecular weight fraction (FIG. 2b, right side of peak)
  biological activity of gel filtration fraction of aged peptide: active
Immature mouse uterus; stored at −20° C. in the lyophilized state, 1 μg per mouse, FIG. 1b
  anti-estrotrophic activity as a function of storage time (shelf-life): diminished to insignificant levels after five weeks of storage
Immature mouse uterus; stored in the lyophilized state at −20° C. for over one year
  biological activity of aged peptide: completely biologically inactive

## CC/C(=C(\c1ccccc1)c1ccc(OCCN(C)C)cc1)c1ccccc1 [tamoxifen]
Immature mouse uterus; i.p.
  uterotrophic effect of agent alone: stimulate the growth of the immature mouse uterus
[1]
  tumor volumes versus E2 alone group (Wilcoxon ranks-sum test): significantly different
  growth (tumor volume) of MCF-7 xenografts in E2-supplemented SCID mice: prevented growth; also recorded: no increase in tumor volume
[2]
  growth (tumor volume) of tamoxifen-resistant MCF-7 subline xenografts in E2-supplemented SCID mice: resistant to tamoxifen in vivo; also recorded: only minimally effective
[3]
  growth (tumor volume) of T47D xenografts in E2-supplemented SCID mice: prevented growth
[4]
  growth (tumor volume) of ER− MDA-MB-231 xenografts: Neither peptide nor tamoxifen were effective; also recorded: did not affect the growth
[6]
  users with uterine cancer as side effect: 0.2%

## Cyclo[EMTOVNOGQ]
[7]
  expression of estrogen receptor-α (ERα): downregulation of expression of estrogen receptor-α (ERα)
[8]
  proliferation of human breast cancer lines in immunocompromised mice: inhibit proliferation of human breast cancer lines
